# According to US20080207594A1, “Use of Gsk-3 Inhibitors for Preventing and Treating Pancreatic Autoimmune Disorders” (Davelogen Aktiengesellschaft, priority 2005, published 2008):
# Entries after “also recorded” stand apart in the source; their conditions may differ.
# B1: betacellulin: growth factor (protein, UniProt P35070 32-111, looked up)
# Betacellulin: DGNSTRSPETNGLLCGDPEENCAATTTQSKRKGHFSRCPKQYKHYCIKGRCRFVVAEQTPSCVCDEGYIGARCERVDLFY
# modifications: Betacellulin
# notes: growth factor
# B2: activin AB: protein related to activin A (protein, UniProt P08476 311-426; P09529 293-407, looked up)
# Inhibin beta A chain: GLECDGKVNICCKKQFFVSFKDIGWNDWIIAPSGYHANYCEGECPSHIAGTSGSSLSFHSTVINHYRMRGHSPFANLKSCCVPTKLRPMSMLYYDDGQNIIKKDIQNMIVEECGCS
# Inhibin beta B chain: GLECDGRTNLCCRQQFFIDFRLIGWNDWIIAPTGYYGNYCEGSCPAYLAGVPGSASSFHTAVVNQYRMRGLNPGTVNSCCIPTKLSTMSMLYFDDEYNIVKRDVPNMIVEECGCA
# B3: BMP 4: TGF-beta family member (protein, UniProt P12644 293-408, looked up)
# Bone morphogenetic protein 4: SPKHHSQRARKKNKNCRRHSLYVDFSDVGWNDWIVAPPGYQAFYCHGDCPFPLADHLNSTNHAIVQTLVNSVNSSIPKACCVPTELSAISMLYLDEYDKVVLKNYQEMVVEGCGCR
# B4: BMP 7: TGF-beta family member (protein, UniProt P18075 293-431, looked up)
# Bone morphogenetic protein 7: STGSKQRSQNRSKTPKNQEALRMANVAENSSSDQRQACKKHELYVSFRDLGWQDWIIAPEGYAAYYCEGECAFPLNSYMNATNHAIVQTLVHFINPETVPKPCCAPTQLNAISVLYFDDSSNVILKKYRNMVVRACGCH
# Key:
# Pax4 = Pax4 transcription in INS-1E insulinoma cells, quantitative RT-PCR; format: cell-based, rat; settings: INS-1E cells; for stimulation of Pax4 transcription relative to activin A (in words): FIG. 16
# From the text: The response of the Pax4 gene to test compounds was investigated in the rat insulinoma cell line INS-1E. INS-1E cells are known to express Pax4 and to upregulate Pax4 levels in response to the treatment with activin-A and betacellulin. In the search for novel beta cell mitogens and/or beta cell protective agents the inventors treated INS-1E cells with different test compounds.
# Total RNA from 8×10^4 cells growing on 4 cm^2 surface area of a tissue culture dish was extracted using Qiagen RNAeasy kit according to the instructions of the manufacturer (Qiagen) and 2 μg was converted into cDNA. Primers for pax4, 18S RNA, and rat RNA polymerase II largest subunit (RPB1) were designed using the Primer Express 1.5 Software from Applied Biosystems and sequences can be obtained upon request. Quantitative real-time PCR was performed using Applied Biosystems SDS 7000 detection system. Amplifications from 2 independent experiments were performed in duplicate for each transcript and mean values were normalized to the mean value of the reference RNA 18S RNA.
# (§1) Cells were seeded at a density of 2×10^4 cells per cm^2 6 to 8 days before the treatment with chemicals. During the growth period the medium was changed once. The cells were incubated for different periods of time with chemicals under serum-free conditions. The cells were harvested in Qiagen RNAeasy cell lysate buffer and immediately transferred to dry ice. The samples were stored at −20° C. until RNA isolation was carried out.
# as §1, with “RNA easy” for “RNAeasy”, “−20 degree” for “−20° C.”
# primary rat beta cells = experiment: In vitro beta cell proliferation assay (Ki-67 / C-peptide staining of dispersed islets); format: cell-based; settings: incubation 72 hours; for replication of primary rat beta cells, agent alone: FIG. 12, FIG. 14
# Method: About 1.5×10^4 beta cells were inspected per experiment and the percentage of double positive cells was determined. The number of replicating beta cells is expressed relative to control cells maintained in 10% FCS (FIG. 9A). Prolactin treated cells served as a technical control. Identification of C-peptide and Ki67 double positive beta cells dispersed on adhesive slides was carried out by immunohistochemistry (FIG. 9B).
# We investigated the growth promoting effects by monitoring the percentage of replicating beta cells in isolated rat islets. Replicating beta cells were identified by immunohistological staining of dispersed islets with antibodies against C-peptide, a fragment of proinsulin, and the cell division marker Ki-67.
# Islets of Langerhans are isolated by standard Liberase digestion method from rat pancreata (Liberase™ Cl enzyme blend BMB Cat. # 1814-435, ROCHE).
# Following the culture period the islets are dispersed gently by titration in Ca^2+ and Mg^2+ free PBS. […] The adherent islet cells are fixed and stained by standard immunofluorescence techniques for C-peptide, a fragment of proinsulin and Ki-67 a marker of proliferating cells.
# An Olympus microscope equipped with an automatic image acquisition device (Olympus) is used for counting of C-peptide positive beta cells. Proliferating C-peptide/Ki-67 double positive beta cells are counted manually. Thereby the fraction of proliferating beta cells can be determined.
molecule,measurement,setting,value
"CC(=O)O/N=C1/C(=C2/C(=O)Nc3cc(Br)ccc32)Nc2ccccc21 [(2′Z,3′ E)-6-Bromoindirubin-3′-acetoxime]",induction of Pax4 expression (in words),Pax4,induction of Pax4 expression was also found
"O=C1Nc2cc(Br)ccc2/C1=C1/Nc2ccccc2/C1=N\O [(2′Z,3′E)-6-Bromoindirubin-3′-oxime]",induction of Pax4 expression (in words),Pax4,induction of Pax4 expression was also found
O=C1Cc2c([nH]c3ccc([N+](=O)[O-])cc23)-c2ccccc2N1 [Alsterpaullone],induction of relative Pax4 expression compared to the control,Pax4; 20 μM,about 7 fold
Cc1c[nH]c(-c2cnc(NCCNc3ccc(C#N)cn3)nc2-c2ccc(Cl)cc2Cl)n1 [CHIR99021],"replication of primary rat beta cells, agent alone",primary rat beta cells,trigger beta cell replication; also recorded: promotes replication of primary rat beta cells
"COc1ccc(CNC(=O)Nc2ncc([N+](=O)[O-])s2)cc1 [GSK-3 inhibitor VIII, N-(4-Methoxybenzyl)-N′-(5-nitro-1,3-thiazol-2-yl)urea]",induction of Pax4 expression (in words),Pax4,induction of Pax4 expression was also found
"GIP: incretin GIP (gastrin inhibitory protein) (YAEGTFISDYSIAMDKIHQQDFVNWLLAQKGKKNDWKHNITQ; Gastric inhibitory polypeptide; UniProt P09681 52-93, looked up)","replication of primary rat beta cells, agent alone",primary rat beta cells,trigger beta cell replication
same,"replication of primary rat beta cells, GIP combined with GSK3 inhibitor CHIR99021",primary rat beta cells; FIG. 14,cooperative effects
NGF: nerve growth factor,"replication of primary rat beta cells, growth factor combined with GSK3 inhibitor 1-Azakenpaullone",primary rat beta cells; FIG. 12,potentiate the growth promoting effects
same,"replication of primary rat beta cells, agent alone",primary rat beta cells,not sufficient to trigger beta cell replication
exendin-4,"replication of primary rat beta cells, agent alone",primary rat beta cells,trigger beta cell replication
B1,"replication of primary rat beta cells, agent alone",primary rat beta cells,does not influence replication of primary rat beta cells
B2,stimulation of Pax4 transcription relative to activin A (in words),Pax4,almost equally potent in stimulating Pax4 transcription as activin A
B3,stimulation of Pax4 transcription relative to activin A (in words),Pax4,hardly induced Pax4 gene transcription
B4,stimulation of Pax4 transcription relative to activin A (in words),Pax4,hardly induced Pax4 gene transcription
